According to patent US6353016B1, “Potassium channel activators” (Nippon Shinyaku Co., Ltd., priority 1998, dated 2002):

What was measured:
[1] = system: isolated rat aorta specimen; test: Effect on KCl-induced contraction of the isolated rat aorta specimen; type: cell-based; settings: papaverine (100 μM) = 100% relaxation
Method: Effect on KCl-induced contraction of the isolated rat aorta specimen
In the present experiment, potassium channel activating activity was evaluated by comparing the pIC50 values representing the relaxing effects of the test drug on the 20 mM KCl-induced contraction and 100 mM KCl-contraction. According to Br. J. Pharmacol., 88, 103-111 (1986) referred to above, potassium channel activators produce greater relaxing effects on 20 mM KCl-induced contraction than on 100 mM KCl-induced contraction.
Male 7-13-week-old SD rats (body weights 240-480 g) were used in groups of 4-6. After the animal was bled to death under ether anesthesia, the throacic aorta was isolated and dissected into a spiral specimen about 2 mm wide×about 20 mm long. Each specimen was suspended in a 10 ml Magnus bath containing Krebs-Henseleit solution (KH solution) aerated with 95% O2+5% CO2 at 37° C. A tension load of 1 g was applied and with the KH solution exchanged every 20 minutes, the specimen was equilibrated for about 90 minutes. Then, the experiment was commenced. The change in tension of the specimen was recorded on a recticorder through an isometric tension transducer. The specimen was caused to contract by replacing the KH solution in the Magnus bath with 20 mM or 100 mM KCl-containing KH solution (NaCl in KH solution was replaced with an equimolar amount of KCl) and when the contractile response had reached plateau, the test drug was cumulatively applied to evaluate the relaxing effect.
Each result was expressed in the average of the relaxation ratio obtained in the presence of the test drug, with the maximum relaxation found with papaverine (100 μM) being taken as the 100% relaxation response of the specimen.

[2] = system: blood pressure in anesthetized rats; test: Effect on blood pressure in anesthetized rats; type: in vivo, rat; settings: 100 mg/kg intraduodenally; urethane-anesthetized female SD rats; % change at time of maximal action, up to 3 hours
Method: Effect on blood pressure in anesthetized rats
Female 10-13-week-old SD rats (body weights 180-300 g) fasted from the previous day were used in groups of 2-4. The animal was placed in supine position under urethane anesthesia and the femoral artery was cannulated for blood pressure measurement. The blood pressure was recorded on a recorder through the cannula and a pressure transducer. When the blood pressure had stabilized, the test drug was administered intraduodenally and the effect on blood pressure was monitored up to 3 hours after administration.
Each value is expressed as the average of % changes at the time of maximal action.

[3] = system: isolated guinea-pig trachea specimen; test: Effect on the KCl-induced contraction of the isolated guinea-pig trachea specimen; type: cell-based
Method: Effect on the KCl-induced contraction of the isolated guinea-pig trachea specimen
As in Experimental Example 1, potassium channel activating activity was evaluated by comparing the relaxing effects of the test drug on 20 mM KCl-induced contraction and 100 mM KCl-induced contraction.
Male 5-13-week-old Hartley guinea pigs (body weights 400-730 g) were used in groups of 2-4. After the animal was bled to death under ether anesthesia, the trachea was isolated and 4 tracheal strips were connected to prepare a specimen in accordance with the method of Takagi et al. (Chem. Pharm. Bull., 6, 716-720 (1958)). The experiment was performed in the same manner as described in Experimental Example 1.

Cc1c(-c2ccccc2F)[nH]c(N)c1C#N [Compound 1, 2-Amino-3-cyano-5-(2-fluorophenyl)-4-methylpyrrole]
Relaxation effect (%) 20 mM KCl-induced contraction ([1]; 10 μM): 82% | Relaxation effect (%) 100 mM KCl-induced contraction ([1]; 10 μM): 28%

Cc1c(-c2ccccc2)[nH]c(N)c1C#N [Compound 2, 2-Amino-3-cyano-4-methyl-5-phenylpyrrole]
Relaxation effect (%) 20 mM KCl-induced contraction ([1]; 10 μM): 78% | Relaxation effect (%) 100 mM KCl-induced contraction ([1]; 10 μM): 17% | Hypotensive effect (%) [2]: 25.9%

Cc1c(-c2cccc(Cl)c2)[nH]c(N)c1C#N [Compound 3, 2-Amino-5-(3-chlorophenyl)-3-cyano-4-methylpyrrole]
Relaxation effect (%) 20 mM KCl-induced contraction ([1]; 1 μM): 45% | Relaxation effect (%) 100 mM KCl-induced contraction ([1]; 1 μM): 6% | Hypotensive effect (%) [2]: 14.1%

Cc1c(-c2ccco2)[nH]c(N)c1C#N [Compound 4, 2-Amino-3-cyano-5-(2-furyl)-4-methylpyrrole]
Relaxation effect (%) 20 mM KCl-induced contraction ([1]; 10 μM): 64% | Relaxation effect (%) 100 mM KCl-induced contraction ([1]; 10 μM): 12% | Hypotensive effect (%) [2]: 25.6%

N#Cc1cc(-c2ccc3c(c2)OCO3)[nH]c1N [Compound 5, 2-Amino-3-cyano-5-(3,4-methylenedioxyphenyl)pyrrole]
Relaxation effect (%) 20 mM KCl-induced contraction ([1]; 10 μM): 73% | Relaxation effect (%) 100 mM KCl-induced contraction ([1]; 10 μM): 18% | Relaxation effect (%) 20 mM KCl-induced contraction ([3]; 10 μM): 58% | Relaxation effect (%) 100 mM KCl-induced contraction ([3]; 10 μM): −7%

N#Cc1cc(-c2ccc(F)cc2F)[nH]c1N [Compound 6, 2-Amino-3-cyano-5-(2,4-difluorophenyl)pyrrole]
Relaxation effect (%) 20 mM KCl-induced contraction ([1]; 10 μM): 92% | Relaxation effect (%) 100 mM KCl-induced contraction ([1]; 10 μM): 24%

Cc1[nH]c(-c2cccc(Cl)c2)cc1C#N [Compound 7, 5-(3-Chlorophenyl)-3-cyano-2-methylpyrrole]
Relaxation effect (%) 20 mM KCl-induced contraction ([3]; 3 μM): 64% | Relaxation effect (%) 100 mM KCl-induced contraction ([3]; 3 μM): 31%

Cc1c(-c2cccc([N+](=O)[O-])c2)[nH]c(N)c1C#N [Compound 8, 2-Amino-3-cyano-4-methyl-5-(3-nitrophenyl)pyrrole]
Relaxation effect (%) 20 mM KCl-induced contraction ([3]; 3 μM): 58% | Relaxation effect (%) 100 mM KCl-induced contraction ([3]; 3 μM): −2%

Cc1[nH]c(-c2ccccc2)c(C)c1C#N [Compound 9, 3-Cyano-2,4-dimethyl-5-phenylpyrrole]
Relaxation effect (%) 20 mM KCl-induced contraction ([3]; 10 μM): 79% | Relaxation effect (%) 100 mM KCl-induced contraction ([3]; 10 μM): 39%

CCOc1cccc(-c2cc(C#N)c(N3CCCC3)[nH]2)c1 [Compound 10, 3-Cyano-5-(3-ethoxyphenyl)-2-pyrrolidinopyrrole]
Relaxation effect (%) 20 mM KCl-induced contraction ([3]; 3 μM): 37% | Relaxation effect (%) 100 mM KCl-induced contraction ([3]; 3 μM): −15%

N#Cc1cc(-c2ccc3c(c2)OCO3)[nH]c1N1CCCC1 [Compound 11, 3-Cyano-5-(3,4-methylenedioxyphenyl)-2-pyrrolidinopyrrole]
Relaxation effect (%) 20 mM KCl-induced contraction ([3]; 10 μM): 37% | Relaxation effect (%) 100 mM KCl-induced contraction ([3]; 10 μM): 4%
